Data on nine compounds can be found in paper PMC3139790 (Bioorganic & medicinal chemistry, 2011).

For assay [1], the system named is genotype 1b and 2a HCV replicons. Kind of assay: HCV replicon assays, genotype 1b and 2a stated together. It counts as cell-based, hepatitis C virus. Particulars: for EC50: Hepatitis C virus, GETYPE1B, read-out: EC50 in genotype 1b and 2a HCV replicons.
Assay [2] concerns HIV-1LAI. As to conditions: HIV-1 infected MT-2 cells, previous studies; cited from earlier work.
The subject of a further assay is Cowpox. As to conditions: read-out: EC50 Cowpox; cited from earlier work.
For a further assay, the system named is HCMV. As to conditions: read-out: EC50 HCMV; in vitro; ref Beadle et al. (ref. [13]); cited from earlier work.
Another assay concerns Vaccinia. As to conditions: read-out: EC50 Vaccinia; in vitro; ref Beadle et al. (ref. [13]); cited from earlier work.
In assay [3] the test system is genotype 2a HCV replicon (JFH-1). Description: HCV replicon assay, JFH-1. As to conditions: CC50/EC50, genotype 2a. The assay is classed as cell-based, hepatitis C virus. (In general: Replicon systems follow genome replication, usually without infectious particles.)
The test system of assay [4] is genotype 1b HCV replicon (BM4-5). Kind of assay: HCV replicon assay, BM4-5. The assay is classed as cell-based, hepatitis C virus. As to conditions: CC50/EC50, genotype 1b.
The subject of assay [5] is HIV-1LAI. Kind of assay: HIV-1 inhibition assay in MT-2 cells. It counts as cell-based. Particulars: HIV-1 in MT-2 cells.

Molecules are shown by their SMILES.

In general, EC50 refers to the concentration at which the effect is half-maximal. On to `CCCCCCCCCCCCCCCCOCCCOP(=O)(O)CO[C@H](COC)Cn1cnc2c(OC)nc(N)nc21` [Compound 44, Hexadecyloxypropyl (S)-9-[(3-methoxy-2-phosphonomethoxy)propyl]-6-O-methylguanine], for which the EC50 in assay [1] is 18000 to 26000 nM. Regarding `C[C@H](Cn1cnc2c(N)ncnc21)OCP(=O)(O)O` [tenofovir], the EC50 in the assay on HIV-1LAI [2] was 650 nM.

With `CCCCCCCCCCCCCCCCCCOCCOP(=O)(O)CO[C@H](CO)Cn1cnc2c(N)ncnc21` [Compound 1, octadecyloxyethyl 9-(S)-[3-hydroxy-2-(phosphonomethoxy)propyl]adenine], the EC50 was 50 ± 40 nM in the assay on Cowpox, 3 ± 1 nM in the assay on HCMV and 20 ± 10 nM with Vaccinia. For `CCCCCCCCCCCCCCCCCCOCCOP(=O)([O-])CO[C@H](COC)Cn1cnc2c(=O)[nH]c(N)nc21.[Na+]` [Compound 34, Octadecyloxyethyl (S)-9-[(3-methoxy-2-phosphonomethoxy)propyl]guanine], in assay [3], the “Selectivity Index JFH-1 (2a)” value is listed as more than 14.0. In assay [4], the “Selectivity Index BM4-5 (1b)” value was more than 18.2. `CCCCCCCCCCCCCCCCCCOCCOP(=O)(O)CO[C@H](COC)Cn1cnc2c(N)ncnc21` [Compound 15, Octadecyloxyethyl (S)-9-[(3-methoxy-2-phosphonomethoxy)propyl]adenine]: the EC50 in assay [1] is 1000 to 2000 nM. `CCCCCCCCCCCCCCCCCCOCCOP(=O)([O-])CO[C@@H](COC)Cn1cnc2c(=O)[nH]c(N)nc21.[Na+]` [Compound 35, Octadecyloxyethyl (R)-9-[(3-methoxy-2-phosphonomethoxy)propyl]guanine]: in the assay on HIV-1LAI [5], the “Selectivity Index” value was >4.4×10^6. Besides, the “Selectivity Index JFH-1 (2a)” value in assay [3] is listed as more than 12.1. The “Selectivity Index BM4-5 (1b)” value in assay [4] is listed as more than 11.9. For `CCCCCCCCCCCCCCCCOCCCOP(=O)(O)CO[C@H](COC)Cn1cnc2c(OC)ncnc21` [Compound 43, Hexadecyloxypropyl (S)-9-[(3-methoxy-2-phosphonomethoxy)propyl]-6-methoxypurine], in assay [1], the concentration for a half-maximal effect (EC50) was in the range of 8900 to 12500 nM.

For `Nc1ncnc2c1ncn2CCOCP(=O)(O)O` [adefovir], in the assay on HIV-1LAI [2], the EC50 is 1100 nM. For `CCCCCCCCCCCCCCCCCCOCCOP(=O)([O-])CO[C@H](COC)Cn1ccc(N)nc1=O.[Na+]` [Compound 40, Octadecyloxyethyl (S)-1-[(3-methoxy-2-phosphonomethoxy)propyl]cytosine], the “anti-HCV activity (in words)” value in assay [1] (genotype 1b and 2a replicons) was “inactive”.
